From US20240142458A1, “FLUORESCENT PROBES FOR QUANTIFICATION OF FREE COPPER” (TECHNISCHE UNIVERSITÄT BERLIN, priority 2020, published 2024)

Tests used:
[1] = Fluorescence titration with metal cations; conditions: for half maximal effective concentration for fluorescence silencing, copper versus other metal cations: 10 μM probe, Exc/Em 416 nm/650 nm; for fluorescence upon treatment with Cu^2+: 40 μM Cu^2+ (CuSO4), probe 10 μM
Protocol: FIG. 6: Fluorescence titration of p-H8THPPA and m-H8TPPA with metal cations. • 10 μM p-H8TPPA or m-H8TPPA solutions were treated with increasing quantities of metal cations followed by detection of fluorescence emission (⋅Exc/Em.416 nm/650 nm). Data are means±S.E.M. of at least n=3 independent experiments. Sigmoidal dose—response curves were fitted by non-linear regression and the resulting EC50 values are indicated.
FIG. 7: Fluorescence titration of p-H8THPPA and m-H8TPPA upon addition of metal cations • 10 μM p-H8TPPA or […] were treated with increasing quantities of metal cations followed by detection of fluorescence emission (⋅Exe/Em.416 nm/650 nm). Data are means+S.E.M. of at least n=3 independent experiments. Sigmoidal dose—response curves were fitted by non-linear regression and the resulting EC50 values are indicated.
Absorption spectra were recorded with a Tecan Infinite M200 Reader (Tecan Austria GmbH, Grödig/Salzburg, Switzerland) from 350 to 500 nm. The same device was used in fluorescence mode to measure fluorescence excitation ([…]; ⋅⋅Em. 650 nm) and fluorescence emission (550-850 nm; ⋅⋅Exc. 415 nm) spectra. 3D scanning was performed on a Spark® multimode microplate reader (Tecan Austria GmbH, Grodig/Salzburg, Switzerland) from 350 to 450 nm (Exc.) and 555 to 850 nm (Em.) with a 5 nm step size, excitation and emission bandwidths of 5 nm, and a detector gain of 100. A typical reaction mix was made by combining equal volumes of 20 μM phosphonate porphyrins diluted in assay-buffer (50 mM HEPES in bidistilled water adjusted to […] with sodium hydroxide solution; depleted of multivalent cations with Chelex® 100 Resin pretreatment^51) and a double-concentrated metal cation solution. Following 30 min incubations at 37° C. absorption or fluorescence measurements were done. For redox conversion tests the CuSO4 solutions were pretreated with 500 μM of L-ascorbic acid before admixing into the phosphonate porphyrin dilutions. To evaluate the effect of metal chelators, the metal cation-treated incubation mixtures were posttreated with 50 equivalents of EDTA or EGTA for 15 min before fluorescence emission readout.

[2] = Effect of Cu-redox conversion on fluorescence; conditions: 10 μM CuSO4 +/- 500 μM L-ascorbic acid
Protocol: FIG. 10: Effect of Cu-redox conversion on p-H8THPPA and m-H8TPPA fluorescence properties • 10 μM CuSO4 solutions pretreated +/−500 μM of l-ascorbic acid (15 min) were mixed with p-H8-TPPA or m-H8TPPA followed by detection of fluorescence emission (⋅⋅Exc/Em.416 nm/650 nm). Data are means+S.E.M. of n=3 independent experiments. Statistically significant differences from control ***p<0.001; two-way ANOVA/Tukey post hoc test) or from Cu^2+ alone (#p<0.05; two-way ANOVA/Tukey post hoc test) are indicated.
Absorption spectra were recorded with a Tecan Infinite M200 Reader (Tecan Austria GmbH, Grödig/Salzburg, Switzerland) from 350 to 500 nm. The same device was used in fluorescence mode to measure fluorescence excitation ([…]; ⋅⋅Em. 650 nm) and fluorescence emission (550-850 nm; ⋅⋅Exc. 415 nm) spectra. 3D scanning was performed on a Spark® multimode microplate reader (Tecan Austria GmbH, Grodig/Salzburg, Switzerland) from 350 to 450 nm (Exc.) and 555 to 850 nm (Em.) with a 5 nm step size, excitation and emission bandwidths of 5 nm, and a detector gain of 100. […] Following 30 min incubations at 37° C. absorption or fluorescence measurements were done. […] To evaluate the effect of metal chelators, the metal cation-treated incubation mixtures were posttreated with 50 equivalents of EDTA or EGTA for 15 min before fluorescence emission readout.

Caco-2 cells [3] = test: Fluorescence labeling of Caco-2 enterocytes (emission spectra, confocal imaging); assay type: cell-based, human; conditions: Caco-2 cells, fluorescence spectra and confocal imaging
Protocol: FIG. 2: Caco-2 fluorescence labeling with Phenylphosphonate-substituted porphyrines. • Caco-2 cells were incubated with increasing concentrations of p-H8TPPA or m-H8TPPA followed by fluorescence measurement (⋅Exc/Em.416 nm/650 nm). Data are means±S.E.M. of n=3 independent experiments.
FIG. 5: Fluorescence labeling of Caco-2 enterocytes by phenylphosphonate-substituted porphyrines. • Fluorescence emission spectra of Caco-2 cells exposed to p-H8TPPA, m-H8TPPA (A) or the isopropyl-modified phosphonate p-H8TPPA-iPr8 (C) in comparison with each of the phenylphosphonate porphyrins as 10 μM dilution in assay buffer (⋅Exc416 nm). (B) Confocal images of Caco-2 upon loading with p-H8TPPA or m-H8TPPA. (D) Confocal images of p-H8TPPA-iPr8 in the presence or absence of Caco-2 cells. Scale bar=10 μm. Data are representative for three independent experiments.
(§1) The human intestinal cell line Caco-2 (European Collection of Cell Cultures, Porton Down, UK) were routinely cultured at 37° C., 5% CO2 and humidified atmosphere in Dulbecco's Modified Eagles Medium (DMEM), containing 10% fetal calf serum (FCS) 100 U/mL penicillin and 100 μg/ml streptomycin. For cellular phosphonate porphyrins experiments, Caco-2 cells were transferred into 96 wells (initially seeding 5000 cells per well) and cultured for 14 days for differentiation into an enterocyte-like monolayer^53,54. For phosphonate labeling, differentiated cells were treated with either m-H8TPPA, p-H8TPPA or p-H8TPPA-iPr8 in a HEPES-based incubation buffer (10 mM HEPES, pH 7.35, 120 mM NaCl, 5.4 mM KCl, 5 mM glucose, 1.3 mM CaCl2, 1 mM MgCl2, 1 mM NaH2PO4, 0.3% bovine serum albumin) for […] Excess fluorescent dye was removed by multiple washing steps before fluorescence emission scanning using 416 nm excitation (Tecan Infinite M200 reader; Tecan, Grödig/Salzburg, […]). To analyze metal responsiveness of the intracellular phosphonate porphyrins, cells were post-treated with 50 μM of different metal solutions at 37° C. in an albumin-free incubation buffer in a time-course experiment.
Fluorescence images of phosphonate porphyrin-labeled Caco-2 enterocytes were acquired on a Leica TCS SP8 laser scanning confocal microscope equipped with LAS X 3.5.5.19976 software platform, using a HC PL APO CS2 63×/1.20 water objective. The filters settings were[…]Exc488 nm/[…]Em580 nm; pinhole 111.5 μm, pinhole size 1 AU.

Caco-2 cells [4] = test: Live-cell sensing of metal uptake into Caco-2 enterocytes; assay type: cell-based, human; conditions: for intracellular probe fluorescence upon extracellular FeSO4: 50 μM FeSO4, Caco-2 cells; for intracellular probe fluorescence upon Cu-exposure / intracellular probe response to incoming Cd^2+, Cu^2+, Hg^2+, Mn^2+, Pb^2+ and Zn^2+: 50 μM, Caco-2 cells
Protocol: FIG. 11: Live-cell sensing of metal uptake into Caco-2 enterocytes with p-H8THPPA and m-H8TPPA. • Caco-2 cells were loaded with p-H8THPPA or m-H8TPPA and the fluorescence recorded in 3 min intervals (⋅⋅Exc/Em.416 nm/650 nm). Fifteen minutes after the start of the experiment (arrow), metal cation solutions (final concentration 50 μM) or buffer (control) were added and the fluorescence measurement continued. Data are means±S.E.M. of n=3 independent experiments.
FIG. 12 Summary of cellular p-H8TPPA and m-H8TPPA metal responsiveness. • Data were taken from the last fluorescence readout shown in FIG. 11. Data are means+S.E.M. of n=3 independent experiments. Significant differences from buffer incubation ***p<0.001; **p<0.01; *p<0.05; one-way ANOVA/Dunnett's multiple comparison test.
as §1

[5] = Metal-dependent changes of absorbance and fluorescence properties, cell-free; conditions: for new absorbance band peak after Cd^2+ treatment: decline of 416 nm maximum; for Soret peak of visible absorption: buffer-control treatment, pH 7.4, 10 μM probe
[6] = 10 μM probe, 40 μM metal, pH 7.4

Compound	half maximal effective concentration for fluorescence silencing, copper versus other metal cations [1]	fluorescence upon treatment with Cu^2+ [1]	fluorescence response to Cu^2+ and Cu^+ [2]	passage of the cellular membrane / cellular uptake (Caco-2 cells [3])	intracellular probe fluorescence upon extracellular FeSO4 (Caco-2 cells [4])	intracellular probe fluorescence upon Cu-exposure (Caco-2 cells [4])	intracellular probe response to incoming Cd^2+, Cu^2+, Hg^2+, Mn^2+, Pb^2+ and Zn^2+ (Caco-2 cells [4])	fluorescence change upon Ca^2+ or Mg^2+ treatment [5, 6]	fluorescence change upon Mn^2+ and (far more pronounced) Pb^2+ treatment [5, 6]	red-shift of the Soret band after Hg^2+ treatment [5, 6]	new absorbance band peak after Cd^2+ treatment [5, 6]	Soret peak of visible absorption [5]	fluorescence emission after Zn^2+ treatment relative to excitation properties ([5]; 10 μM probe, 40 μM metal, pH 7.4, FIG. 1)
O=P(O)(O)c1cccc(-c2c3nc(c(-c4cccc(P(=O)(O)O)c4)c4ccc([nH]4)c(-c4cccc(P(=O)(O)O)c4)c4nc(c(-c5cccc(P(=O)(O)O)c5)c5ccc2[nH]5)C=C4)C=C3)c1 [m-H8TPPA, 5,10,15,20-tetrakis [m-phenylphosphonic acid] porphyrin]	considerably lower for copper	almost complete abrogation	Quenching	pass the cellular membrane	remained stable	strong and rapid decline	fluorescence silencing	higher fluorescence	dropped markedly	approximately 30 nm	434 nm	around 416 nm	
O=P(O)(O)c1ccc(-c2c3nc(c(-c4ccc(P(=O)(O)O)cc4)c4ccc([nH]4)c(-c4ccc(P(=O)(O)O)cc4)c4nc(c(-c5ccc(P(=O)(O)O)cc5)c5ccc2[nH]5)C=C4)C=C3)cc1 [p-H8TPPA, 5,10,15,20-Tetrakis [p-phenylphosphonic acid] porphyrin]	considerably lower for copper	almost complete abrogation	Quenching	pass the cellular membrane	remained stable	strong and rapid decline	fluorescence silencing	higher fluorescence	dropped markedly	approximately 30 nm	434 nm	around 416 nm	much lower than what would have been expected
